Active and inactive are the calls of the source.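 How the source made its calls: active means IC50 at or below 20 µM; inactive means the rest.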
Molecular target: Glucose-6-phosphate 1-dehydrogenase (Homo sapiens) (UniProt P11413)
Assay: human G6PD enzyme inhibitors, dose response, selectivity assay for P. falciparum G6PD inhibitor project, biochemical, fluorescence (AID 504792)
Details: NADPH resazurin-diaphorase fluorescence

Sequence of Glucose-6-phosphate 1-dehydrogenase (Homo sapiens) (P11413 whole entry, looked up): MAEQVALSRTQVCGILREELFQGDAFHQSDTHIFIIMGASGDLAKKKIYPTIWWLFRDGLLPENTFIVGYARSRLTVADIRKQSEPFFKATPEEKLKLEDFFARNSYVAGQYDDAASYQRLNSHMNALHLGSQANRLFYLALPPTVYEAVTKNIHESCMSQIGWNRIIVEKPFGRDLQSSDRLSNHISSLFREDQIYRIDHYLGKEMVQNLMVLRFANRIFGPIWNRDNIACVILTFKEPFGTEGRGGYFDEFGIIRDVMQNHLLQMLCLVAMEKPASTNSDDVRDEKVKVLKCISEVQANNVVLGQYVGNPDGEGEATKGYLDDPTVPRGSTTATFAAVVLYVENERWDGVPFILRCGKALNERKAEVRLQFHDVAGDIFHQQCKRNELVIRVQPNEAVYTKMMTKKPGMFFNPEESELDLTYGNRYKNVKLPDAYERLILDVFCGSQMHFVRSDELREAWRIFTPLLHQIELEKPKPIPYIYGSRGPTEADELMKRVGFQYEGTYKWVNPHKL

For `C[c-]1[c-](C)[c-](C)[c-](C)[c-]1C.[Fe].c1cc2nccc(N3CCCC3)[c-]2c1` (stereo unspecified), the IC50 was > 80 µM (inactive).
